# In paper PMC7822874, “Chemoprotective antimalarials identified through quantitative high-throughput screening of Plasmodium blood and liver stage parasites” (Scientific Reports, 2021):
# Assay: in vitro
# Conditions: human, hepg2-a16-cd81egfp cells, % viability
# Further: reference of the scale not given here.
row,Structure (SMILES),viability at 3 µM [%]
1,OC(CNC1CCCc2ccccc21)COc1c(Cl)cccc1Cl (centres unmarked) [MLS000334339],100
2,c1ccc2sc(Sc3ncnc4sccc34)nc2c1 [MLS000334432],96.9
3,Cc1ccc(Sc2ccc(NC(=O)CCl)cc2)cc1C [MLS000334846],93.9
4,Clc1ccc2c(N/N=C/c3cccc(Br)c3)ccnc2c1 [MLS000336198],87.2
5,CCOc1ccccc1NC(C)C(=O)Nc1cc(C(F)(F)F)ccc1N1CCOCC1 (centres unmarked) [MLS000336343],99.6
6,CCN(CC)c1ccc(NC(=O)COc2ccccc2C#N)cc1S(=O)(=O)Nc1ccccc1OC [MLS000339599],97.1
7,O=C(NC1=C(Nc2ccc(F)cc2)C(=O)c2ccccc2C1=O)c1ccc(Cl)cc1 [MLS000375026],97
8,O=C(NC1=C(Nc2ccc(Cl)cc2)C(=O)c2ccccc2C1=O)c1ccccc1 [MLS000375030],97.1
9,CC1CCN(c2ccc(C(=O)NCc3ccco3)cc2[N+](=O)[O-])CC1 [MLS000389854],91.2
10,COc1ccccc1CNCC(O)Cn1c2ccccc2c2ccccc21 (centres unmarked) [MLS000391556],92.6
11,CCOc1ccc2c(c1)OC(c1ccc(C)cc1)(C(F)(F)F)NC2=O (centres unmarked) [MLS000392832],63.5
12,CCOC(=O)c1sc2nc3c(SCCC#N)cc(C(=O)c4cc(F)ccc4O)cn3c(=O)c2c1C [MLS000393119],91.3
13,Cc1nc2ccc(NC(=O)c3cc(S(=O)(=O)N(C)c4ccccc4)ccc3Cl)cc2s1 [MLS000393823],59.7
14,O=C(c1cc(C(=O)NCCc2ccccc2)c(=O)n(CCc2ccccc2)c1)c1cc(Cl)ccc1O [MLS000402354],100
15,CCOc1ccc(Nc2cc(=O)oc3ccccc23)cc1 [MLS000519261],103
16,Cc1ccc(C(=O)N/N=C/c2ccc([N+](=O)[O-])s2)cc1 [MLS000519463],95.4
17,OC(CNCC1CCCO1)Cn1c2ccc(Cl)cc2c2cc(Cl)ccc21 (centres unmarked) [MLS000525403],90.7
18,CCOc1ccccc1NC(=O)Cn1c(-c2ccc(Cl)cc2)noc1=O [MLS000529487],86.9
19,COc1ccc2[nH]c(C)c(CCN(Cc3cccs3)C(S)=Nc3ccccc3)c2c1 [MLS000529828],86.8
20,CCCCCCCc1c(C)[nH]c(N2CCOCC2)nc1=O [MLS000531187],90.5
21,Clc1ccc(NNc2ccnc3cc(Cl)ccc23)cc1 [MLS000537447],90.3

row,Structure (SMILES),viability at 3 µM [%]
1,O=C(CCl)Nc1cccc(-c2cnc3ccccc3n2)c1 [MLS000541295],88.6
2,CN(C)c1nc(-c2ccccn2)nnc1-c1ccccc1 [MLS000541553],86.2
3,Cc1ccccc1C1C(C#N)=C2N=C(N)c3c(sc4c3CCCCC4)N2C2=C1C(=O)CCC2 (centres unmarked) [MLS000543544],92.6
4,Cc1cc(C)c(C)c(S(=O)(=O)NCc2ccc(C(=O)N3CCCCC3)cc2)c1C [MLS000547926],90.2
5,CC1CCN(S(=O)(=O)c2ccc3c(c2)C(=NO)c2cc(S(=O)(=O)N4CCC(C)CC4)ccc2-3)CC1 [MLS000551434],6.86
6,O=c1c2ccccc2nc(N/N=C/c2c(O)ccc3ccccc23)n1O [MLS000551780],34.1
7,CCc1c(C)c(C#N)c2nc3ccccc3n2c1NCC1CCCO1 (centres unmarked) [MLS000556827],99.5
8,O=C(NCc1ccccc1)c1onc(CSc2nc3ccccc3[nH]2)c1C(=O)NCc1ccccc1 [MLS000561090],105
9,Cc1noc(C)c1CSc1nc2sc3c(c2c(=O)n1C)CCCC3 [MLS000564913],89.9
10,O=C(/C(=C/c1ccc(Cl)cc1)c1nc2ccccc2[nH]1)c1cccs1 [MLS000565128],79.2
11,CCN(CC)C1=NC(=[N+](CC)CC)c2ccccc21.[O-][Cl+3]([O-])([O-])O [MLS000565348],83.4
12,Cc1ccnc2nc(C(=O)Nc3cc(Cl)ccc3N3CCOCC3)nn12 [MLS000567033],98.5
13,CC(C)(C)N1C(=O)c2ccc(C(=O)Nc3ccc(-c4nc5ccccc5[nH]4)cc3)cc2C1=O [MLS000567491],104
14,CC(=O)N(C)C1=C(N2CCOCC2)C(=O)c2ccccc2C1=O [MLS000570886],96.1
15,O=C(NC(c1ccccc1)c1cc(Cl)c2cccnc2c1O)c1cccnc1 (centres unmarked) [MLS000573359],69.7
16,O=[N+]([O-])c1ccc(N2CCN(/C(S)=N/C3CCCCC3)CC2)cc1 [MLS000574247],99.2
17,Cc1ccc(Nc2cc(C)nc(NCc3ccccc3)n2)cc1 [MLS000574704],80.6
18,CCOc1ccc(C(=O)Nc2ccc(-c3nc4ccccc4[nH]3)cc2)cc1[N+](=O)[O-] [MLS000577721],101
19,COc1cccc(C2C3=C(N=c4sc(=Cc5ccccc5O)c(=O)n42)c2ccccc2CC3)c1OC (centres unmarked) [MLS000580951],92.9
20,C=CCNC(=S)N1CCN(c2ccc([N+](=O)[O-])cc2)CC1 [MLS000581348],99.6
21,OCC[n+]1ccc(/C=C/c2c[nH]c3ccccc23)cc1 [MLS000585200],90.7

row,Structure (SMILES),viability at 3 µM [%]
1,Cc1ccc(NC2=C/C(=N\S(=O)(=O)c3cccs3)c3ccccc3C2=O)cc1C [MLS000585841],81.7
2,Cc1cccc(Nc2cc(C)c3c(O)cccc3n2)c1C [MLS000586980],88.1
3,COc1ccc(/C=N/Nc2cc(C)nc(-n3nc(C)cc3C)n2)c(OC)c1 [MLS000589396],91
4,Clc1ccc2c(N/N=C/c3ccc(Br)cc3)ccnc2c1 [MLS000589586],104
5,Cc1cc(Nc2ccc(Cl)cc2)nc(NCc2ccccc2)n1 [MLS000591025],87.8
6,Clc1ncnc2scc(-c3ccc(Br)cc3)c12 [MLS000591637],99.5
7,Cc1cc(Nc2cccc(Cl)c2)nc(NCc2ccccc2)n1 [MLS000591844],80.9
8,CCOC(=O)c1nc2cc3n(c(CC(C)C)c-2c1C)CC(C)=C3C [MLS000594428],105
9,CN1CCN(c2ccc(NC(=O)c3ccc(-c4cccc([N+](=O)[O-])c4)o3)cc2)CC1 [MLS000663772],107
10,Cc1ccc(Nc2cc(C)c3ccc(O)cc3n2)cc1C [MLS000674791],92.2
11,Oc1ccccc1Nc1nc(NCc2ccccc2)c2ccccc2n1 [MLS000693415],90.9
12,N=c1ccn(CC(=O)c2ccc(-c3ccccc3)cc2)cc1 [MLS000698051],53.4
13,CN1C2CCC1/C(=C/c1ccccn1)C(=O)/C2=C\c1ccccn1 [MLS000702810],83
14,O=C(CCc1ccccc1)NC(c1cccs1)c1cc(Cl)c2cccnc2c1O (centres unmarked) [MLS000703748],54
15,CCOC(=O)c1c(CN(C)C)n(-c2ccc(C)cc2)c2cc(Br)c(O)cc12 [MLS000705141],97.3
16,CC1(C)Cc2ccccc2C2=NNC(=O)C2=N1 [MLS000709658],94.5
17,CCOC(=O)c1c(NC(=O)C[n+]2ccc(N(C)C)cc2)sc(C)c1C [MLS000710762],65.1
18,Cc1cc(C)[n+](C)n1CC(O)Cn1c2ccccc2c2ccccc21 (centres unmarked) [MLS000711524],104
19,C/C(=N\Nc1nc(-c2ccccc2O)nc2ccccc12)c1ccccc1 [MLS000714167],93.6
20,CCCC(=O)NC(c1ccccc1OC)c1ccc2cccnc2c1O (centres unmarked) [MLS000715345],55.4
